Data reported in a melting point compilation (Tetko et al.; mined from patent text by program, amines drawn as free bases though some values may be those of a salt).

Row | Structure (SMILES) | melting point
1 | Nc1ccc2ncnc(Nc3cccc(C(F)(F)F)c3)c2c1 | 190 to 192 °C
2 | O=C1NC(=O)c2c1c(-c1ccccc1Cl)cc1c2cc(CO)n1CCCBr | 218 to 220 °C
3 | CCCCN(CCCC)S(=O)(=O)NC(=O)Nc1c(C(C)C)cccc1C(C)C | 98 to 101 °C
4 | CCCCCCCCCCCCC(Oc1ccc(O)c(C(C)(C)C)c1)C(=O)OCC (stereo unspecified) | 45 to 48 °C
5 | O=C(CBr)Nc1ccc(I)cc1 | 185 °C
6 | O=C(c1ccccc1)c1cc2cc(Cl)ncc2[nH]1 | 194 to 197 °C
7 | CCNc1nc(Cl)ccc1C(=O)O | 158 to 160 °C
8 | CN1CC(CCN2CCC(c3c[nH]c4ccccc34)CC2)C=C2c3cccc4[nH]cc(c34)CC21 (stereo unspecified) | 184 to 187 °C
9 | CC(C)n1nc(C(=O)O)c2ccccc21 | 160 to 163 °C
10 | N#CC1CN1C(=O)Oc1ccc([N+](=O)[O-])cc1 (stereo unspecified) | 100 to 104 °C
11 | CCC1(C)CC(=O)C(C(=O)Nc2cccc(C(F)(F)F)c2)C(=O)C1 (stereo unspecified) | 81 to 82 °C
12 | CCCc1ccnc(C(N)=O)c1N | 139 to 141 °C
13 | Cn1nnc2ccc3nc(O)c(O)nc3c21 | > 300 °C
14 | C=CCOc1ccc(CCNC(=O)NC)cc1OC | 81 to 83 °C
15 | COC[C@H](C1CC1)n1cc(Cl)nc(Cl)c1=O | 110 to 111 °C
16 | CCOC(=O)C(=O)Nc1cc(Cl)ccc1[N+](=O)[O-] | 103 to 104 °C
17 | Cc1nnc(Cl)c2cc(O)ccc12 | > 260 °C

Row | Structure (SMILES) | melting point
18 | Cn1nc2c(N)nc3ccccc3c2c1CC(C)(C)C | 254 to 255 °C
19 | CCOC=C(C(C)=O)C(=O)NCc1ccc(Cl)cc1 | 103 to 105 °C
20 | Cc1ccc(S(=O)(=O)OC[C@H](O)CO)cc1 | 54 to 59 °C
21 | CC(=O)c1cc(Cl)cc(Oc2ncccc2C(=O)NCc2ccc(C(C)(C)O)cc2Cl)c1 | 58 to 60 °C
22 | Cc1cc(C(=O)Nc2cccc(C3CN4CCSC4=N3)c2)n(C)n1 (stereo unspecified) | 163 to 164 °C
23 | CCOC(=O)C1(C)Cc2cc(Cl)cc([N+](=O)[O-])c2O1 (stereo unspecified) | 69 to 72.5 °C
24 | CCOC(=O)COc1c(OC)cc(Cl)c2c1CN1CCc3cc(OC)c(O)cc3C1C2 (single isomer, unassigned; (-)) | 132 °C
25 | N#Cc1cc2c(c(C(=O)O)c1)NCCS2 | 241 to 242 °C
26 | Cc1cn2cccc(OCc3c(Cl)ccc(S(=O)(=O)N4CCC[C@H]4C(=O)N4CCN(C(=O)c5ccc(C=NN)cc5)CC4)c3Cl)c2n1 | 159 to 161 °C
27 | O=C1c2cc(Cl)ccc2-n2cnc(-c3noc(CCl)n3)c2[C@@H]2CCN12 | 238 to 241 °C
28 | COc1ccc(C2(C3CCCC3=O)CCC(C(=O)O)CC2)c2c1OCCO2 (stereo unspecified) | 200 to 201 °C
29 | CC(=O)Oc1cccc(C(=O)NCCO[N+](=O)[O-])c1 | 89 to 91 °C
30 | CCCCCCCCCCCCCCCCOC(=O)c1cc(C(=O)OCCCCCCCCCCCCCCCC)cc(S(=O)(=O)O)c1 | 63 to 65 °C
31 | NS(=O)(=O)c1nc2ccc(OCC3CO3)cc2s1 (stereo unspecified) | 149 to 152 °C
32 | CCC(COC)Nc1c([N+](=O)[O-])cc(C)c(C)c1[N+](=O)[O-] (single isomer, unassigned; (-)) | 42.5 to 44 °C
33 | O=[N+]([O-])c1ccc(-c2cc3c(Cl)ncnc3[nH]2)cc1 | > 280 °C

Second part, the molecule after the results:

Row | melting point | Structure (SMILES)
34 | 102 to 105 °C | COc1ccc(Sc2ccccc2CC(=O)O)cc1
35 | 175 °C | CN(C(=S)N[C@@H](Cc1ccc(NC(=O)c2c(Cl)cncc2Cl)cc1)C(=O)O)c1ccccc1C(=O)NCC1CCCCC1
36 | 180 to 182 °C | CC(C)C(=O)N(C)C1CN(C(=O)Nc2ccc(C(F)(F)F)cc2)N=C1c1ccc(Cl)cc1 (stereo unspecified)
37 | 108 to 109 °C | CC(=O)SCC(Cc1ccccc1)C(=O)Nc1cccc(C(=O)OCc2ccccc2)c1 (stereo unspecified)
38 | 185 °C | Cc1cccc(N(C)C(=O)c2cc(=O)n(C)c3ccc(C(O)(c4ccc(Cl)cc4)c4cncn4C)cc23)c1 (stereo unspecified)
39 | 158 to 159 °C | Cc1nnc(-c2ccc3occ(-c4ccc(SCc5ccccc5)cc4)c3c2)o1
40 | 48 to 51 °C | Cc1c(-c2ccc(OCc3ccccc3)cc2)n(C(=O)c2ccc(OCCN3CCCCC3)cc2)c2ccc(OCc3ccccc3)cc12
41 | 167 °C | Cc1cc(-c2ccc(C(F)(F)F)cc2)cc(-c2cccc(-c3cccc(N)c3)n2)n1
42 | 142 to 144 °C | O=C(Nc1ccc(-n2nc(C(F)(F)F)cc2C(F)(F)F)cc1)c1cccc(Cl)c1
43 | 106 to 108 °C | Cc1c(-c2ccccc2)oc2c(C(=O)NCC(C)N3CCCCC3)cccc2c1=O (stereo unspecified)
44 | 78 to 81 °C | CCC1(CC)C(=O)N(c2ccccc2)CC(C)(C)N1OC(C)c1ccccc1 (stereo unspecified)
45 | 218 °C | CC(C)(C)C(=O)OCc1cc2c(cc1C#Cc1ccccc1)NC(=O)CC(c1cccc(C#N)c1)=N2
46 | 119 to 120 °C | COc1cc(CC(=O)NCCCc2ccc(C)c(C)c2)ccc1OCCO
47 | 54 °C | CCC1CC(=O)N(Cc2cccc(C(=O)NC3CCCC3)c2)N=C1c1ccc(OC)c(OC)c1 (stereo unspecified)
48 | 374 to 376 °C | CC(C)Cn1c(=O)[nH]c2c(C(N)=O)nc(-c3cccc(O)c3)nc21
49 | 149 to 155 °C | COc1ccc(-c2cnc3cc4cnn(Cc5ccccc5)c4cc3n2)cc1F
50 | 228 to 234 °C | O=C(Nc1ccc(C(=O)N2CCc3cn[nH]c3-c3ccccc32)cn1)c1ccccc1-c1ccccc1

Row | melting point | Structure (SMILES)
51 | 108 to 111 °C | O=C(Cn1c(-c2cccs2)ncc(NC(=O)OCc2ccccc2)c1=O)NC(Cc1ccccc1)C(=O)C(F)(F)F (stereo unspecified)
52 | 219 to 221 °C | O=C(O)c1cc2ccc3c(c2c(-c2ccc4c(c2)OCO4)c1COCc1ccccc1)OCO3
53 | 140 to 141 °C | c1ccc(COc2cc3cc(-c4ccccc4)[nH]c3cc2OCc2ccccc2)cc1
54 | 179 °C | CC(C)(Oc1ccc(-c2ccc(CCNC(=O)c3ccccc3)cc2)cc1)C(=O)O
55 | 69 to 71 °C | COc1ccc2cc([C@H](C)C(=O)OC/C=C\CO)ccc2c1
56 | 172 to 174 °C | COc1ccc(-c2ncc(NC(=O)OCc3ccccc3)c(=O)n2CC(=O)NC(Cc2ccccc2)C(=O)C(F)(F)F)cc1 (stereo unspecified)
57 | 90 to 93 °C | COc1ccc(C2(C)C(=O)c3c(N4CCN(C)CC4)cc(Cl)cc3N(Cc3cccc(N)c3)C2=O)cc1 (stereo unspecified)
58 | 154 to 155 °C | Cc1nn(CC(F)(F)COCc2ccccc2)c(-c2ccc(F)cc2)c1-c1ccc2c(c1)NC(=O)CO2
59 | 110 to 113 °C | CCCCCNC(=O)C(C)Cc1ccc2c(c1)c(Cc1ccc(C(=O)NS(=O)(=O)c3ccccc3C)cc1OC)cn2C (stereo unspecified)
60 | 123 to 125 °C | COc1ccc(N2CCN(c3c(C)c(C)c4c(c3C)C(O)(c3ccccc3)C(C)(C)O4)CC2)cc1 (stereo unspecified)
61 | 197 to 198 °C | Nc1nc2[nH]c(CCCCC#Cc3ccc(C(=O)N[C@@H](CCC(=O)O)C(=O)O)s3)cc2c(=O)[nH]1
62 | 73 °C | CC(Oc1ccc2c(c1)OCC(Cc1ccccn1)C2O)c1ccc2ccccc2n1 (stereo unspecified)
63 | 168 °C | CN(CCCCOc1ccc(C=C2SC(=O)NC2=O)cc1)c1nc2ccccc2o1
64 | 200 °C | ON=Cc1ccc(-c2ccc(O)cc2)c2ccccc12
65 | > 250 °C | O=C(Nc1cccc2c(Cn3ccnc3)ccnc12)c1c(Cl)cccc1Cl
66 | 135 to 137 °C | O=c1c(-c2ccccc2)c(-c2ccccc2)oc2cc(OCC(O)CNC3CC3)ccc12 (stereo unspecified)
